Earlier results, collected in US20250360135A1, “COMPOSITIONS COMPRISING DISODIUM 5,10-METHYLENE-(6R)-TETRAHYDROFOLATE” (MERCK PATENT GMBH, priority 2022, published 2025).

For `Nc1nc2c(c(=O)[nH]1)N1CN(c3ccc(C(=O)N[C@@H](CCC(=O)O)C(=O)O)cc3)C[C@H]1CN2` [5,10-methylene-(6R,S)-tetrahydrofolic acid], the “purity after 7 hours” value (after 7 hours) is listed as 84%, the “normalized purity after 24 hours” value (after 24 hours) is listed as 45% and the “degradation rate (loss of purity per hour)” value (re-constituted lyophilizate, linear regression of stability profile) is listed as 2.2 % purity per hour.
